# Source: patent US9029378B2, “Substituted bicyclic aromatic carboxamide and urea compounds as vanilloid receptor ligands” (Gruenenthal GmbH, priority 2011, dated 2015)
# Biological target: T1, vanilloid receptor 1 (VR1/TRPV1 receptor) (Homo sapiens, UniProt Q8NER1)
# T1 construct: expressed in transfected cells; host or cells: CHO K1
# Assay: Functional testing on the vanilloid receptor 1 (FLIPR Ca2+ influx assay, capsaicin)
# Type: cell-based, human being
# Details: @5 μM; Cap=capsaicin; read-out: inhibition (as a percentage), (f) (human being) Cap
# Experimental: Furthermore, preference may be given to compounds according to the invention that cause a 50 percent displacement of capsaicin, which is present at a concentration of 100 nM, in a FLIPR assay with CHO K1 cells which were transfected with the human VR1 gene at a concentration of less than 2,000 nM, preferably less than 1,000 nM, particularly preferably less than 300 nM, most particularly preferably less than 100 nM, even more preferably less than 75 nM, additionally preferably less than 50 nM, most preferably less than 10 nM.
# In the process, the Ca^2+ influx is quantified in the FLIPR assay with the aid of a Ca^2+-sensitive dye (type Fluo-4, Molecular Probes Europe BV, Leiden, the Netherlands) in a fluorescent imaging plate reader (FLIPR, Molecular Devices, Sunnyvale, USA), as described hereinafter.
# Pharmacological Methods I. Functional Testing Carried Out on the Vanilloid Receptor 1 (VR1/TRPV1 Receptor) […]
# The number of cells in the suspension is set to 3×10^5 per mL and 150 μL of this suspension are in each case introduced into a recess in the cell culture plates coated as described hereinbefore. In the incubator the plates are left for two to three days at 37° C., 5% by volume of CO2 and 95% relative humidity. Subsequently, the cells are loaded with 2 μM of Fluo-4 and 0.01% by volume of Pluronic F127 (Molecular Probes Europe BV, Leiden, the Netherlands) in HBSS buffer (Hank's buffered saline solution, Gibco Invitrogen GmbH, Karlsruhe, Germany) for 30 min at 37° C., washed 3 times with HBSS buffer and after further incubation for 15 minutes at room temperature used for Ca^2+ measurement in a FLIPR assay. The Ca^2+-dependent fluorescence is in this case measured before and after the addition of substances (λex=488 nm, λem=540 nm). Quantification is carried out by measuring the highest fluorescence intensity (FC, fluorescence counts) over time.
# The FLIPR protocol consists of 2 substance additions. First the compounds to be tested (10 μM) are pipetted onto the cells and the Ca^2+ influx is compared with the control (capsaicin 10 μM). This provides the result in % activation based on the Ca^2+ signal after the addition of 10 μM of capsaicin (CP). After 5 minutes' incubation, 100 nM of capsaicin are applied and the Ca^2+ influx is also determined.
# Desensitising agonists and antagonists lead to suppression of the Ca^2+ influx. The % inhibition is calculated compared to the maximum achievable inhibition with 10 μM of capsazepine. Triple analyses (n=3) are carried out and repeated in at least 3 independent experiments (N=4). Starting from the percentage displacement caused by different concentrations of the compounds to be tested of general formula I, IC50 inhibitory concentrations which cause a 50-percent displacement of capsaicin were calculated. Ki values for the test substances were obtained by conversion by means of the Cheng-Prusoff equation (Cheng, Prusoff; Biochem. Pharmacol. 22, 3099-3108, 1973).
# The affinity of the compounds of to the invention for the vanilloid receptor 1 (VR1/TRPV1 receptor) was determined as described hereinbefore (pharmacological method I). The compounds of the invention display outstanding affinity to the VR1/TRPV1 receptor (Table 2). In Table 2 the abbreviations below have the following meanings: • Cap=capsaicin • AG=agonist • NE=no effect
# The value after the “@” symbol indicates the concentration at which the inhibition (as a percentage) was respectively determined.
# T1 sequence (Q8NER1 whole entry): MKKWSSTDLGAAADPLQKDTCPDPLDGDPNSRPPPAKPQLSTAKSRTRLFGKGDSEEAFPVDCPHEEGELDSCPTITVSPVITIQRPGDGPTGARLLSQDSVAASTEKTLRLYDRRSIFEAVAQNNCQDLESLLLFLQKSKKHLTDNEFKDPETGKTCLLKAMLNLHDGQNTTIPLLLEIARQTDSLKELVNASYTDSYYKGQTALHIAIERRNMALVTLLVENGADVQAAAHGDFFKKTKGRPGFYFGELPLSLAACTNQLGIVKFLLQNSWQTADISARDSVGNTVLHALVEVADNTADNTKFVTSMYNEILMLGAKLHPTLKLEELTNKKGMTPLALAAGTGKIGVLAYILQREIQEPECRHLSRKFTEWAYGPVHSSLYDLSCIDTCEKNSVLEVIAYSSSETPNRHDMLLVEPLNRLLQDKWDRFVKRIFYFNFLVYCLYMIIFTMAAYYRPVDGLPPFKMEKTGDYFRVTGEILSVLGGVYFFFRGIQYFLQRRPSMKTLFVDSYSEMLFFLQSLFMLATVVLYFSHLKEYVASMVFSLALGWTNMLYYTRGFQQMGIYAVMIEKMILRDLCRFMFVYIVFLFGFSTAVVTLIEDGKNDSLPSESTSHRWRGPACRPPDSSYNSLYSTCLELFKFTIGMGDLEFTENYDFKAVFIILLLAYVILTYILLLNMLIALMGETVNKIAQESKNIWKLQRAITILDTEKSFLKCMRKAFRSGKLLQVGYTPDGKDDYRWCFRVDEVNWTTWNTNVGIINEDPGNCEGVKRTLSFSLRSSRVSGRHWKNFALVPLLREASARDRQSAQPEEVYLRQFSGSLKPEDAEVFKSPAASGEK
row,Compound,inhibition at 5 µM [%]
1,"CC(=O)Nc1nc2ccc(NC(=O)NCc3ccc(C(F)(F)F)nc3N3CCC(C)CC3)cc2s1 [Example 35, N-(6-(3-((2-(4-Methylpiperidin-1-yl)-6-(trifluoromethyl)pyridin-3-yl)methyl)ureido)benzo[d]thiazol-2-yl)acetamide]",47
2,"CC1CCN(c2nc(C(F)(F)F)ccc2CNC(=O)Nc2cc3ccccc3cn2)CC1 [Example 21, 1-(Isoquinolin-3-yl)-3-((2-(4-methylpiperidin-1-yl)-6-(trifluoromethyl)pyridin-3-yl)methyl)urea]",39
3,"Cc1ccc2cccc(NC(=O)NCc3ccc(C(C)(C)C)cc3N3CCC(C)CC3)c2n1 [Example 74, 1-(4-Tert-butyl-2-(4-methylpiperidin-1-yl)benzyl)-3-(2-methylquinolin-8-yl)urea]",24

# Same assay, conditions: Cap=capsaicin (100 nM); Ki from IC50 by Cheng-Prusoff equation; read-out: (f) Ki (human being) [nM] Cap
row,Compound,Ki [nM]
1,"CC1CCN(c2nc(C(F)(F)F)ccc2CNC(=O)Nc2ccc3cnccc3c2)CC1 [Example 83, 1-(Isoquinolin-6-yl)-3-((2-(4-methylpiperidin-1-yl)-6-(trifluoromethyl)pyridin-3-yl)methyl)urea]",7
2,"COc1ccc(NC(=O)NCc2ccc(C(F)(F)F)nc2N2CCC(C)CC2)c2cnccc12 [Example 88, 1-(5-Methoxyisoquinolin-8-yl)-3-((2-(4-methylpiperidin-1-yl)-6-(trifluoromethyl)pyridin-3-yl)methyl)urea]",62
3,"CC1CCN(c2nc(C(F)(F)F)ccc2CNC(=O)Nc2cccc3c(Cl)nccc23)CC1 [Example 79, 1-(1-Chloroisoquinolin-5-yl)-3-((2-(4-methylpiperidin-1-yl)-6-(trifluoromethyl)pyridin-3-yl)methyl)urea]",0.8
4,"CC1CCN(c2nc(C(C)(C)C)ccc2CNC(=O)Nc2cccc3ncccc23)CC1 [Example 64, 1-((6-Tert-butyl-2-(4-methylpiperidin-1-yl)pyridin-3-yl)methyl)-3-(quinolin-5-yl)urea]",1
5,"CC(C)Oc1nc(C(F)(F)F)ccc1CNC(=O)Nc1cccc2ncccc12 [Example 65, 1-((2-Isopropoxy-6-(trifluoromethyl)pyridin-3-yl)methyl)-3-(quinolin-5-yl)urea]",4
6,"CC1CCN(c2nc(C(F)(F)F)ccc2CNC(=O)Nc2cccc3c2cnn3C)CC1 [Example 46, 1-(1-Methyl-1H-indazol-4-yl)-3-((2-(4-methylpiperidin-1-yl)-6-(trifluoromethyl)pyridin-3-yl)methyl)urea]",0.5
7,"CC1CCN(c2nc(C(F)(F)F)ccc2CNC(=O)Nc2c(Cl)ccc3[nH]ncc23)CC1 [Example 57, 1-(5-Chloro-1H-indazol-4-yl)-3-((2-(4-methylpiperidin-1-yl)-6-(trifluoromethyl)pyridin-3-yl)methyl)urea]",3
8,"CN(C)C1(c2ccccc2)CCN(c2nc(C(F)(F)F)ccc2CNC(=O)Nc2cccc3[nH]ncc23)CC1 [Example 45, 1-((2-(4-(dimethylamino)-4-phenylpiperidin-1-yl)-6-(trifluoromethyl)pyridin-3-yl)methyl)-3-(1H-indazol-4-yl)urea]",7
9,"CC1CCN(c2nc(C(F)(F)F)ccc2CNC(=O)Nc2ccc3ncsc3c2)CC1 [Example 32, 1-(Benzo[d]thiazol-6-yl)-3-((2-(4-methylpiperidin-1-yl)-6-(trifluoromethyl)pyridin-3-yl)methyl)urea]",4
10,"Cc1ccc2cccc(NC(=O)NCc3ccc(C(F)(F)F)nc3N3CCC(C)CC3)c2n1 [Example 73, 1-((2-(4-Methylpiperidin-1-yl)-6-(trifluoromethyl)pyridin-3-yl)methyl)-3-(2-methylquinolin-8-yl)urea]",24
11,"CC(C(=O)NCc1ccc(C(F)(F)F)nc1SC1CCCCC1)c1cnc2ccccc2c1 (stereo not drawn) [Example 15, N-((2-(Cyclohexylthio)-6-(trifluoromethyl)pyridin-3-yl)methyl)-2-(quinolin-3-yl)propanamide]",50
12,"O=C(NCc1ccc(C(F)(F)F)nc1OC1CCC1)Nc1cccc2ncccc12 [Example 68, 1-((2-Cyclobutoxy-6-(trifluoromethyl)pyridin-3-yl)methyl)-3-(quinolin-5-yl)urea]",2
13,"CC1CCN(c2cc(C(F)(F)F)ccc2CNC(=O)Nc2cc(F)cc3[nH]ncc23)CC1 [Example 53, 1-(6-Fluoro-1H-indazol-4-yl)-3-(2-(4-methylpiperidin-1-yl)-4-(trifluoromethyl)benzyl)urea]",1
14,"O=C(NCc1ccc(C(F)(F)F)nc1SC1CCCCC1)Nc1cncc2ccccc12 [Example 19, 1-((2-(Cyclohexylthio)-6-(trifluoromethyl)pyridin-3-yl)methyl)-3-(isoquinolin-4-yl)urea]",4
15,"CC1CCN(c2nc(C(F)(F)F)ccc2CNC(=O)Nc2cccc3[nH]cnc23)CC1 [Example 58, 1-(1H-Benzo[d]imidazol-4-yl)-3-((2-(4-methylpiperidin-1-yl)-6-(trifluoromethyl)pyridin-3-yl)methyl)urea]",3
16,"1-(6,7-Dihydro-5H-cyclopenta[b]pyridin-3-yl)-3-((2-(4-methylpiperidin-1-yl)-6-(trifluoromethyl)pyridin-3-yl)methyl)urea [Example 1]",9
17,"CC1CCN(c2nc(C(F)(F)F)ccc2CNC(=O)Nc2cccc3ncsc23)CC1 [Example 60, 1-(Benzo[d]thiazol-7-yl)-3-((2-(4-methylpiperidin-1-yl)-6-(trifluoromethyl)pyridin-3-yl)methyl)urea]",1
18,"CC1CCN(c2nc(C(F)(F)F)ccc2CNC(=O)Nc2ccc3cncnc3c2)CC1 [Example 91, 1-((2-(4-Methylpiperidin-1-yl)-6-(trifluoromethyl)pyridin-3-yl)methyl)-3-(quinazolin-7-yl)urea]",8
